Results on 79 compounds are retold here after the METLIN SMRT retention time set (Domingo-Almenara et al. 2019).

SMILES strings stand for the structures.

The data set in a line: gradient 5% acetonitrile 3 min, to 50% in 2 min, to 85% in 15 min, held 3 min, 100 µL/min. The following applies: column: Zorbax Extend-C18 2.1 x 50 mm; eluents: water / acetonitrile, 0.1% formic acid. In short, it runs like this: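 Pure standards were run in mixtures of ~100 molecules by HPLC coupled to a quadrupole time-of-flight mass spectrometer. The column was a Zorbax Extend-C18 (2.1 × 50 mm, 1.8 μm) at 100 μL/min, with water and acetonitrile each containing 0.1% formic acid, in positive and negative ionization mode. Dead and dwell volumes were 40 μL and 900 μL. Retention time was taken from computationally picked adduct peaks, each manually inspected, with data collected over 3 months.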
The compound `O=C(NCc1cccc(Cl)c1)C1c2ccccc2CCN1C(=O)C1CC1` (centres undefined) returned an RP-LC retention time of 838 s.

`O=S(=O)(CCc1ccccc1)N1CCN(c2ccc3nnc(-c4ccco4)n3n2)CC1` gave an RP-LC retention time of 752 s.

As for `CC(C)Cn1cc(CCNS(=O)(=O)Cc2cccc(Cl)c2)c2cccnc21`, the RP-LC retention time amounted to 969 s.

`Cc1cccn2c(NC(=O)c3cc4ccccc4oc3=O)c(-c3ccccc3)nc12` yielded an RP-LC retention time of 695 s.

In turn, `CC1=NS(=O)(=O)N(Cc2ccccc2)C=C1C(=O)OCc1noc(-c2ccccc2C)n1` registered an RP-LC retention time of 1170 s.

For the compound `Cc1ccc(Cn2c(=O)c(N3CCN(C(=O)Nc4ccc5c(c4)OCO5)CC3)nc3cccnc32)cc1`, the RP-LC retention time is 1070 s.

Compound `COc1cc(NC(=O)C2(C)CCCCC(=O)N2)cc(OC)c1` (centres undefined) yielded an RP-LC retention time of 612 s.

For `Cc1nc2cc(-c3noc(C(C)Oc4ccccc4)n3)ccc2n(C2CCCC2)c1=O` (centres undefined), the RP-LC retention time came to 1310 s.

Turning to `O=C(c1cnccn1)N1CCN(c2ccc(-n3cccn3)nn2)CC1`, the RP-LC retention time turned out to be 580 s.

Turning to `Cc1nn(-c2nc(-c3ccccc3)cs2)c(C)c1CC(=O)Nc1cccc(C(F)(F)F)c1`, the RP-LC retention time stood at 1270 s.

`CCSc1nc2ccc(NS(=O)(=O)c3ccc(C)cc3C)cc2s1` showed an RP-LC retention time of 1110 s.

Take `COc1cc(NC(=O)CCc2c(-c3ccccc3)nc3ccccn23)cc(OC)c1`: the RP-LC retention time is 671 s.

As for `Cc1ccccc1NC(=O)N1CC(Cc2nncn2C(C)C)C1`, the RP-LC retention time was determined as 616 s.

The compound `CCCCC(=O)Nc1ccc(SCc2nnc(-c3ccc4c(c3)OCO4)o2)cc1` displayed an RP-LC retention time of 948 s.

In the case of `Cc1ccc(C2Cn3cnc(C(=O)N4CCC(C(=O)NCCc5ccccc5)CC4)c3CO2)cc1` (centres undefined), the RP-LC retention time worked out at 826 s.

On to `Cc1noc(-c2cccnc2N2CCCN(Cc3cc(F)cc(F)c3)CC2)n1`, for which the RP-LC retention time was determined as 659 s.

As to `CCC1=NS(=O)(=O)c2cccnc2N1c1ccc(Br)c(C)c1`, the RP-LC retention time came out at 986 s.

In turn, `O=C(Cc1ccc(F)cc1)NC(c1ccccc1)c1nnc(N2CCOCC2)o1` (centres undefined) displayed an RP-LC retention time of 743 s.

The compound `Cc1cc(NC(=O)C2CCc3nc(N4CCOCC4)ncc3C2)ccc1Cl` (centres undefined) yielded an RP-LC retention time of 897 s.

The compound `COc1ccc(-c2nnc(-c3ccc(C)c(S(=O)(=O)N(C)C)c3)o2)cc1OC` registered an RP-LC retention time of 878 s.

`O=C(NCc1cccc(Br)c1)C1CCCN(c2ccc(=O)n(-c3ccc(F)cc3)n2)C1` (centres undefined) showed an RP-LC retention time of 1050 s.

As to `O=C(NCC(F)F)c1cc2c(s1)N(CC1CC1)CCCC2`, the RP-LC retention time was determined as 1000 s.

Consider `COCCCNC(=O)C1CCCN(c2ccc(Sc3ccc(Br)cc3)nn2)C1` (centres undefined), for which the RP-LC retention time was found to be 777 s.

The compound `COc1cccc(-c2noc(Cn3ccn(-c4ccccc4)c(=O)c3=O)n2)c1` yielded an RP-LC retention time of 812 s.

On to `CCN(CC)CCNC(=O)CSCc1ccc(C)cc1`, for which the RP-LC retention time was 631 s.

As for `O=C(CCc1c(-c2ccc(Cl)cc2)nc2ccccn12)NC1CCCCCC1`, the RP-LC retention time amounted to 712 s.

Consider `CC(C)c1ccc(NC(=O)Cn2cnc3nc(N4CCCC(C(=O)NC5CC5)C4)sc3c2=O)cc1` (centres undefined), for which the RP-LC retention time stood at 754 s.

Compound `Cc1ccc(C)c(NC(=O)CN2C(=O)C(C(=O)N3CCCC3)Sc3ccccc32)c1` (centres undefined) displayed an RP-LC retention time of 969 s.

As to `O=S(=O)(Cc1ccccc1F)N1CCCCC1c1nc(-c2ccccc2)n[nH]1` (centres undefined), the RP-LC retention time was 948 s.

Consider `COc1ccc(NC(=O)N2CCC(n3c(C)nc4cccnc43)CC2)cc1OC`, for which the RP-LC retention time came to 563 s.

Regarding `COCCNC(=O)C1c2ccccc2CC(=O)N1Cc1ccccc1` (centres undefined), the RP-LC retention time is 711 s.

`Cn1cc(C(=O)N2CCC(N(Cc3ccccc3)C3CCOCC3)CC2)cn1` returned an RP-LC retention time of 573 s.

Consider `O=C(NC1CCCCC1)c1ccc(Cn2cncn2)cc1`, for which the RP-LC retention time is 671 s.

As to `CCc1nc2ccccc2c(=O)n1Cc1noc(-c2ccc(OC)cc2OC)n1`, the RP-LC retention time was 918 s.

With `CCN1C(=O)Cc2ccccc2C1C(=O)NCc1ccc(Br)cc1` (centres undefined), the RP-LC retention time came to 802 s.

The compound `COc1ccc(NC(=O)N2CCc3c(c(-c4nnc(-c5ccccc5Cl)o4)nn3C)C2)cc1` gave an RP-LC retention time of 853 s.

As for `COCc1cc(=O)n(CC(=O)Nc2c(C)cccc2C)c(N)n1`, the RP-LC retention time came to 604 s.

Consider `Cc1ccc(N2CN(CC(=O)NCCC3=CCCCC3)S(=O)(=O)c3cccnc32)cc1`, for which the RP-LC retention time came to 1050 s.

`O=C(NCc1ccccc1C(F)(F)F)C1CCCN(c2nccnc2Sc2ccccc2)C1` (centres undefined) had an RP-LC retention time of 1110 s.

Compound `Cn1nccc1-c1cccc(-c2noc(-c3cc(F)cc(F)c3)n2)c1` returned an RP-LC retention time of 1220 s.

`COc1cc(NC(=O)Nc2nccn(-c3cccc(Cl)c3)c2=O)cc(OC)c1` displayed an RP-LC retention time of 978 s.

For the compound `COc1cc(OC)c(NC(=O)N2CCC3(CC2)N=C(c2cccc(F)c2)C(=O)N3)cc1Cl`, the RP-LC retention time came to 886 s.

As to `CCOc1cc(C)c(S(=O)(=O)N2CCC(C(N)=O)CC2)cc1C`, the RP-LC retention time was determined as 715 s.

The compound `CCOC(=O)c1cc(-c2ccc(S(=O)(=O)N3CCN(c4ccccn4)CC3)s2)on1` came in with an RP-LC retention time of 809 s.

As for `CC(n1cc(C[C@H](N)C(=O)O)c2ccccc21)n1cc(C[C@H](N)C(=O)O)c2ccccc21`, the RP-LC retention time is 628 s.

The compound `CCCn1cc(CCNS(=O)(=O)c2ccccc2C(F)(F)F)c2cccnc21` returned an RP-LC retention time of 904 s.

`Cc1nc2cc3c(cc2n1CC(=O)NCc1ccc(F)cc1)OCCO3` showed an RP-LC retention time of 636 s.

`Cc1cccc(C(=O)NCCc2cn(CC(C)C)c3ncccc23)c1` came in with an RP-LC retention time of 827 s.

Regarding `CCNc1cc(N2CCC(CCC(=O)NCc3cc(F)cc(F)c3)CC2)ncn1`, the RP-LC retention time is 669 s.

Compound `O=C(c1ccc(OC(F)(F)F)cc1)N1CCN(CCn2cccn2)CC1` showed an RP-LC retention time of 582 s.

In turn, `CCOC(=O)c1c(C)[nH]c(C(=O)N2CCC(CC(=O)NCc3ccc(N(C)C)cc3)CC2)c1C` showed an RP-LC retention time of 620 s.

On to `CN(C)S(=O)(=O)N(CC(=O)Nc1ccccc1C(F)(F)F)c1ccccc1`, for which the RP-LC retention time amounted to 972 s.

`c1ccc(-c2nnc3oc(-c4cccs4)nn23)cc1` had an RP-LC retention time of 911 s.

As for `COc1ccc(-c2nnc(-c3cc(S(=O)(=O)N4CCSCC4)ccc3Cl)o2)cc1`, the RP-LC retention time amounted to 1080 s.

Turning to `CC1CCCN(C(=O)c2csc(-c3ccc(N4CCCC4)nc3)n2)C1` (centres undefined), the RP-LC retention time came out at 660 s.

In turn, `O=C1CCCc2cc(S(=O)(=O)NCC3CCN(Cc4ccccc4F)CC3)ccc2N1` displayed an RP-LC retention time of 596 s.

`Cc1oc(-c2ccc(C(=O)NCCN(C)C)cc2)nc1CN1CCc2ccccc21` gave an RP-LC retention time of 694 s.

`O=C(c1ccco1)N1CCCC1c1nc(-c2ccc(F)cc2F)no1` (centres undefined) came in with an RP-LC retention time of 860 s.

`CCn1nc(-c2ccc(OC)c(S(=O)(=O)N3CCC(C(N)=O)CC3)c2)c2c(c1=O)CCCC2` registered an RP-LC retention time of 663 s.

On to `CCCn1cc(S(=O)(=O)NCc2cccc(F)c2)c2cccnc21`, for which the RP-LC retention time worked out at 936 s.

Compound `CCC(C)NC(=O)Cn1ncc2c(c1=O)N(C)C(=O)CS2` (centres undefined) came in with an RP-LC retention time of 606 s.

`COc1ccc(NC(=O)CCc2c(C)nn(-c3cc(N(C)C)ncn3)c2C)c(OC)c1` showed an RP-LC retention time of 776 s.

As to `CC1=C(C(=O)N2CCOCC2)C(c2ccccc2Br)C2=C(CC(C)(C)CC2=O)N1` (centres undefined), the RP-LC retention time worked out at 683 s.

Take `Cc1ccc(C2CC(=O)c3cnc(Nc4nc(C)c5cccc(C)c5n4)nc3C2)cc1` (centres undefined): the RP-LC retention time was 794 s.

The compound `Cc1noc(-c2ccc(=O)n(Cc3ccccc3C)n2)n1` gave an RP-LC retention time of 851 s.

In the case of `O=C(c1cccnc1)N1CCc2cc(-c3ccno3)ccc21`, the RP-LC retention time came out at 683 s.

Consider `CC(=O)NC(C)c1nc(-c2ccc(Cl)cc2)no1` (centres undefined), for which the RP-LC retention time is 777 s.

`COc1cc(OC)cc(C(=O)N2CCC3(CC2)NC(=O)c2ccc(Cl)cc2N3)c1` displayed an RP-LC retention time of 742 s.

For `CC(=O)Oc1ccc(C(=O)N2CCCc3ccccc32)cc1`, the RP-LC retention time was 904 s.

`Nc1ccc(-c2ccc3ccccc3n2)cc1` displayed an RP-LC retention time of 619 s.

`CCC(C)NC(=O)Cn1nc(-c2nc(-c3cccc(C)c3)no2)c2ccccc21` (centres undefined) displayed an RP-LC retention time of 1170 s.

On to `COc1ccc(C2(C(=O)N3CCCC(CN4CCOCC4)CC3)CC2)cc1` (centres undefined), for which the RP-LC retention time was 596 s.

Regarding `COc1ccc(C(=O)N2CCc3ccc(C(=O)Nc4ccc5c(c4)OCCO5)cc32)cc1`, the RP-LC retention time is 868 s.

`Cc1nc(-c2csc(S(=O)(=O)N3CCCC(C(=O)Nc4ccc(F)cc4Cl)C3)c2)no1` (centres undefined): the RP-LC retention time came to 1010 s.

Turning to `Cc1cc(C)cc(NC(=O)NCC2CCOCC2)c1`, the RP-LC retention time came out at 752 s.

In the case of `CCC(C)NC(=O)NC1CCN(C2=NS(=O)(=O)C(c3ccc(C)cc3)=C2C)CC1` (centres undefined), the RP-LC retention time stood at 822 s.

`O=C(Cn1c(=O)c2nncn2c2ncccc21)N1CCN(c2ccccc2)CC1` showed an RP-LC retention time of 674 s.

For the compound `COc1ccc(OC)c(S(=O)(=O)N2CCCC(C)(C(=O)NCc3ccc(F)cc3)C2)c1` (centres undefined), the RP-LC retention time was found to be 916 s.

For `C=CCN1C(=O)COc2ccc(-c3csc(NC(=O)CCC)n3)cc21`, the RP-LC retention time amounted to 894 s.
